Literature values, collected in patent US6476012B2, “Estradiol-16α-carboxylic acid esters as locally active estrogens” (Yale University, priority 2001, dated 2002).

Legend:
classical ER, ERα = biological target: T1, classical ER, ERα (Homo sapiens, UniProt P03372); conditions: previously reported; cited from earlier work
T1 sequence (P03372 1-595): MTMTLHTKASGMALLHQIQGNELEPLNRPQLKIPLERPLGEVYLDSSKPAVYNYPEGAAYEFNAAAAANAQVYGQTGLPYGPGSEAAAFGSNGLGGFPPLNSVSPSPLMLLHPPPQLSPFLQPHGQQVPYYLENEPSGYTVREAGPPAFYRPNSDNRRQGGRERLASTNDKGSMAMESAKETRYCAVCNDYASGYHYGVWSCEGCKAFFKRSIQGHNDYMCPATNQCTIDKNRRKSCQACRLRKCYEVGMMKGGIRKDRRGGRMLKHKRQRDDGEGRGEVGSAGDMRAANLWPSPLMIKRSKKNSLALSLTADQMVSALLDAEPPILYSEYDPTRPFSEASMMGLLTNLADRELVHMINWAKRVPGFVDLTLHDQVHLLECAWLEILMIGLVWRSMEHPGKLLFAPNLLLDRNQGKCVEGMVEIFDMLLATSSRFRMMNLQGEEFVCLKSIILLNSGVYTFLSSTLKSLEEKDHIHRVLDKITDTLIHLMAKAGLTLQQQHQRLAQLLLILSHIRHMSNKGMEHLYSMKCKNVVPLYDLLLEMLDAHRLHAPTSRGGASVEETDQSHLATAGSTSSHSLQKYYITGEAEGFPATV

ERβ = ERβ (Homo sapiens, UniProt Q92731); conditions: previously reported; cited from earlier work
ERβ, sequence (Q92731 whole entry, species assumed): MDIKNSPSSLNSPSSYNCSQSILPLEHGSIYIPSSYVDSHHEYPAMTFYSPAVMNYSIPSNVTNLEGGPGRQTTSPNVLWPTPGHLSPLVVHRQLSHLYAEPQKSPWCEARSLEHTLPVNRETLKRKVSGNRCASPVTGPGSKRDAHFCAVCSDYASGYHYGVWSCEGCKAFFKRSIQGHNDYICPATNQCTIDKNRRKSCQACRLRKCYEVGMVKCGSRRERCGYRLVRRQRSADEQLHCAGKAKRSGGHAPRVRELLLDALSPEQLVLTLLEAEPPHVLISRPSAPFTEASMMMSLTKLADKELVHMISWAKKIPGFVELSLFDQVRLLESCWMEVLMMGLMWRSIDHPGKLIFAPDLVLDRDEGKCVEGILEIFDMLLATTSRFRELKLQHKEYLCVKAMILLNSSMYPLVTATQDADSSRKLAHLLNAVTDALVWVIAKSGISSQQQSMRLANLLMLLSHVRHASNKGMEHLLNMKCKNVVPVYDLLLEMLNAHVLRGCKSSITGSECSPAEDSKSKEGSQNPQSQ

**Q.** For `C[C@]12CC[C@@H]3c4ccc(O)cc4CC[C@H]3[C@@H]1C[C@@H](I)[C@@H]2O` [16α-iodoestradiol], which “binding to ERα” value (classical ER, ERα) is on record?
**A.** Its value is “binds with high affinity”.

**Q.** And the “binding to ERβ” value (ERβ)?
**A.** Its value is “binds only poorly”.
